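Growth conditions: 96-well plates. Treatment: test compound, 48 hours, 5 concentrations. Analysis: linear interpolation between bracketing concentrations; unreached endpoints set to highest concentration. GI50 marks 50% less growth.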 Activity calls are given as the source filed them. Cut-off read from the data, not from the text of the source: active = GI50 up to about 1.1 µM and inactive = higher.
Key:
Experiment in all cases: NCI anticancer screen, dose series, 48 h
SNB-19 = system: SNB-19
NCI/ADR-RES = system: NCI/ADR-RES
SK-MEL-5 = system: SK-MEL-5
MDA-MB-435 = system: MDA-MB-435
786-0 = system: 786-0
OVCAR-4 = system: OVCAR-4
UACC-62 = system: UACC-62
SK-MEL-28 = system: SK-MEL-28
IGROV-1 = system: IGROV-1
UACC-257 = system: UACC-257
RXF 393 = system: RXF 393
MCF7 = system: MCF7
SK-OV-3 = system: SK-OV-3
SR = system: SR
RPMI-8226 = system: RPMI-8226
UO-31 = system: UO-31
OVCAR-3 = system: OVCAR-3
OVCAR-5 = system: OVCAR-5
NCI-H23 = system: NCI-H23
NCI-H522 = system: NCI-H522

Measured: GI50

COc1ccc(C(=O)/C=C/c2ccc(OCCSCCCCCCCCCCSCCOc3ccc(/C=C/C(=O)c4ccc(OC)cc4)cc3)cc2)cc1
inactive: SNB-19 > 100 µM | NCI/ADR-RES > 100 µM | SK-MEL-5 > 100 µM | MDA-MB-435 > 100 µM | 786-0 > 100 µM | OVCAR-4 > 100 µM | UACC-62 > 100 µM | SK-MEL-28 > 100 µM | IGROV-1 > 100 µM | UACC-257 > 100 µM | RXF 393 > 100 µM | MCF7 > 100 µM | SK-OV-3 > 100 µM | SR > 100 µM | RPMI-8226 > 100 µM | UO-31 > 100 µM

Cc1oc2c(cc(O)c3ccccc32)c2cccc1-2
inactive: SNB-19 > 100 µM | NCI/ADR-RES > 100 µM | SK-MEL-5 > 100 µM | MDA-MB-435 > 100 µM | 786-0 > 100 µM | OVCAR-3 > 100 µM | SK-MEL-28 > 100 µM | UACC-257 > 100 µM | OVCAR-5 > 100 µM | MCF7 > 100 µM | NCI-H23 > 100 µM | SK-OV-3 > 100 µM | SR > 100 µM | RPMI-8226 > 100 µM

CC1CCN(C(C)C)P(=S)(Cc2ccccc2)O1 (configuration not stated)
inactive: SNB-19 > 100 µM | NCI/ADR-RES > 100 µM | SK-MEL-5 > 100 µM | MDA-MB-435 > 100 µM | 786-0 > 100 µM | OVCAR-4 84.3 µM | UACC-62 16.7 µM | OVCAR-3 34.4 µM | SK-MEL-28 13.6 µM | IGROV-1 > 100 µM | UACC-257 97.3 µM | OVCAR-5 > 100 µM | MCF7 > 100 µM | NCI-H23 92.9 µM | SK-OV-3 > 100 µM | SR > 100 µM | RPMI-8226 99.8 µM | UO-31 > 100 µM

NS(=O)(=O)c1ccc(/N=N/c2ccc(O)c(C(=O)O)c2)cc1 [SALAZOSULFAMIDE]
inactive: SNB-19 > 100 µM | NCI/ADR-RES > 100 µM | SK-MEL-5 > 100 µM | MDA-MB-435 > 100 µM | 786-0 > 100 µM | OVCAR-4 > 100 µM | UACC-62 > 100 µM | OVCAR-3 > 100 µM | SK-MEL-28 > 100 µM | IGROV-1 > 100 µM | UACC-257 > 100 µM | OVCAR-5 > 100 µM | RXF 393 > 100 µM | MCF7 > 100 µM | NCI-H23 > 100 µM | NCI-H522 82.4 µM | SK-OV-3 > 100 µM | RPMI-8226 > 100 µM | UO-31 > 100 µM

Reference: ChEMBL document CHEMBL1201862, “PubChem BioAssay data set” (2004)
